Experiments:
[1] = target: T1, human capsaicin receptor (Homo sapiens, UniProt Q8NER1); experiment: Calcium mobilization assay; format: cell-based; details: cells expressing human capsaicin receptor, FLUO-3 fluorescence; positive control in agonist assay; read-out: approximate EC90 concentration
T1 construct: pBK-CMV expression construct encoding the full length human capsaicin receptor; expressed in transfected cells
Method: This Example illustrates representative calcium mobilization assays for use in evaluating test compounds for agonist and antagonist activity.
The culture medium is emptied from the 96 well plates and FLUO-3 AM calcium sensitive dye (Molecular Probes, Eugene, Oreg.) is added to each well (dye solution: 1 mg FLUO-3 AM, 440 μL DMSO and 440 μl 20% pluronic acid in DMSO, diluted 1:250 in Krebs-Ringer HEPES (KRH) buffer (25 mM HEPES, 5 mM KCl, 0.96 mM NaH2PO4, 1 mM MgSO4, 2 mM CaCl2, 5 mM glucose, 1 mM probenecid, pH 7.4), 50 μl diluted solution per well). Plates are covered with aluminum foil and incubated at 37° C. for 1-2 hours in an environment containing 5% CO2. […]
To measure the ability of a test compound to agonize or antagonize a calcium mobilization response in cells expressing capsaicin receptors to capsaicin or other vanilloid agonist, the EC50 of the agonist capsaicin is first determined. […] Capsaicin-induced calcium mobilization is monitored using either FLUOROSKAN ASCENT (Labsystems; Franklin, Mass.) or FLIPR (fluorometric imaging plate reader system; Molecular Devices, Sunnyvale, Calif.) instruments. […] In this equation, y is the maximum fluorescence signal, x is the concentration of the agonist or antagonist (in this case, capsaicin), a is the Emax, b corresponds to the EC50 value and c is the Hill coefficient. […]

[2] = target: VR (Homo sapiens, UniProt Q8NER1); details: typical value, background section; read-out: K; value (binds to VR); cited from earlier work
VR, sequence (Q8NER1 whole entry): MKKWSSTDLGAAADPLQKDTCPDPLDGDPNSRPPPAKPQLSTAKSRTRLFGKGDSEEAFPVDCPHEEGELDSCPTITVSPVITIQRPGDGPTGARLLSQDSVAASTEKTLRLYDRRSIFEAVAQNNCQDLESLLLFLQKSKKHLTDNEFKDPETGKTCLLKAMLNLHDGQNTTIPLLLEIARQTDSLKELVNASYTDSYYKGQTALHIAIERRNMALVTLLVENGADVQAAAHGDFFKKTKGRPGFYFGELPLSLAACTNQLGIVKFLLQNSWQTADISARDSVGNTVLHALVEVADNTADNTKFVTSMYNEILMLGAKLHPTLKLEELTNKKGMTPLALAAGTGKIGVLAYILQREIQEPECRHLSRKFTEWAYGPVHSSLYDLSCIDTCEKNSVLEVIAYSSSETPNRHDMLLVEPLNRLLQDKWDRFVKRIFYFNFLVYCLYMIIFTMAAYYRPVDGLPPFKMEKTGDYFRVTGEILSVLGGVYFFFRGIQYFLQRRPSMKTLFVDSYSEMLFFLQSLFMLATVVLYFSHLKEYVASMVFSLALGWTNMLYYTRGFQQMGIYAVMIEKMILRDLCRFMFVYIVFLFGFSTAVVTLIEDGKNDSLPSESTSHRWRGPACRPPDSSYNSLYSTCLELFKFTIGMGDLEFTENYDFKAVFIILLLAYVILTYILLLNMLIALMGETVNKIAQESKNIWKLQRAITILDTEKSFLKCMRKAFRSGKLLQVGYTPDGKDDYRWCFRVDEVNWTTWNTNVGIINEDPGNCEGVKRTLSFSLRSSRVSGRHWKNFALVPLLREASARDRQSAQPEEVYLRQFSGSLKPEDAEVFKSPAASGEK

T1 sequence (Q8NER1 whole entry): as above

Row | SMILES | EC90 [1] | Ki [2]
1 | COc1cc(CNC(=O)CCCC/C=C/C(C)C)ccc1O [capsaicin] | ~0.1 µM | –
2 | Cl.Cl.Cl.Cl.Cl.Cl.N.N.N.N.N.N.N.N.N.N.N.N.N.N.[O-2].[O-2].[Ru+3].[Ru+3].[Ru+4] [ruthenium red] | – | ≥ 140 µM

Reference: patent US20070191374A1, “Substituted cinnolin-4-ylamines” (Neurogen Coroperation, priority 2004, published 2007)
